Reference: paper PMC9414551 (Pharmaceuticals, 2022)
Where “and” joins values, the source holds several entries; their conditions need not be identical. Equal values may be shown once. Where a name gives a salt, the structure may show the parent alone.

Experiments:
NR1-2B NMDAR [1] = biological target: T1, NR1-2B NMDAR (Homo sapiens, UniProt Q05586+Q13224); test: FLIPR Ca2+ assay, blocker concentration-response curve; format: cell-based; set-up: host or cells: CHO (CHO-hNR1-h2B), constitutive expression; conditions: for Min. (%), minimal % Ca2+ influx in the presence of 100 μM blocker: 10 µM L-glutamate, no Mg2+; for Slope: logistic fit of blocker CRC
T1 sequence (Q13224 27-1484, other chains not shown): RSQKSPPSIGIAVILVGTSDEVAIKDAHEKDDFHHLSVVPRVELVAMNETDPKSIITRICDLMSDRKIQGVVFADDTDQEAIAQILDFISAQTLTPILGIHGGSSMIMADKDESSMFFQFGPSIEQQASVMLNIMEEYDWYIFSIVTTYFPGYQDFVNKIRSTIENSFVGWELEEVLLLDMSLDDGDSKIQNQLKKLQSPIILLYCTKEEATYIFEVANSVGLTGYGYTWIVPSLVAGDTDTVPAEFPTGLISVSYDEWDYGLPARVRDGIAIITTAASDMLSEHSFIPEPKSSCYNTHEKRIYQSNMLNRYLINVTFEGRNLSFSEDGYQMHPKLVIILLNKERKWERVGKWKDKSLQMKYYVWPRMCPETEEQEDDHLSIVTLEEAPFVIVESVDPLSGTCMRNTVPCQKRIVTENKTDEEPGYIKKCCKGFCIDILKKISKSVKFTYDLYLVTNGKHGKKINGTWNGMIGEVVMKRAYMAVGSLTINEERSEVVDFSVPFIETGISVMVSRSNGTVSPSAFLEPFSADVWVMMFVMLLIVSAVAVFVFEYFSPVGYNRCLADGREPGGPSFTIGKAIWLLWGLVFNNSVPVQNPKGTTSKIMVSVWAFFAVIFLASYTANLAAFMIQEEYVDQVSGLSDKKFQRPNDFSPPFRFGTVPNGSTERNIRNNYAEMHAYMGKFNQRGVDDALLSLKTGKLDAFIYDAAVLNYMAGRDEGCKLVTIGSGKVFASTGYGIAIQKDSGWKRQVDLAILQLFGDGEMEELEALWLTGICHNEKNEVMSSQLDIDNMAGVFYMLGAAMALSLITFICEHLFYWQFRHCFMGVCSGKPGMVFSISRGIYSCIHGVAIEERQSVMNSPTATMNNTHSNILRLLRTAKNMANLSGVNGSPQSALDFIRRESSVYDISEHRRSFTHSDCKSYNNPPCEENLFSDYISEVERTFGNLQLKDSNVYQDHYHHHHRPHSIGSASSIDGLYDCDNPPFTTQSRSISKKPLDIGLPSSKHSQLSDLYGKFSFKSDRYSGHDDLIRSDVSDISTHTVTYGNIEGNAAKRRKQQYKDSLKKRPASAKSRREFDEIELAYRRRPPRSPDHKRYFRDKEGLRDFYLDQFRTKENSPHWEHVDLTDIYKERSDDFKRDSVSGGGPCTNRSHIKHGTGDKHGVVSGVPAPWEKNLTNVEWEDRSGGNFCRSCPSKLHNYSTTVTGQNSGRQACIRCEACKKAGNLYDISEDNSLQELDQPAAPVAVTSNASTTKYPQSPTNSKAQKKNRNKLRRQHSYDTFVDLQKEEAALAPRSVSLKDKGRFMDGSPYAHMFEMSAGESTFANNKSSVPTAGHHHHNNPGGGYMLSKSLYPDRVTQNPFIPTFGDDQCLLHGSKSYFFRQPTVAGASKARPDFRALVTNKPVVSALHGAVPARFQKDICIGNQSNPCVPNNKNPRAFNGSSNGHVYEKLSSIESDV
From the text: (§1) CHO cell lines stably over-expressing heterodimeric NMDARs composed of human NR1 and 2 subunits were generated by Aptuit, an Evotec company (Verona, Italy). Cell line details are available at ExPASy Cellosaurus database. Research Resource Identifiers (RRIDs) are CVCL_B3TY, CVCL_B3TZ, CVCL_B3U0, and CVCL_B3U1 for CHO-hNR1-h2A, CHO-hNR1-h2B, CHO-hN1-h2C, and CHO-hN1-h2D, respectively. Protein accession numbers were NP_015566, NP_000824, NP_000825, NP_000826, and NP_000827 for NR1, 2A, 2B, 2C, and 2D, respectively. […] The four different heterodimeric NMDARs studied were NR1-2A, NR1-2B, NR1-2C, and NR1-2D. Cell lines were cultured for a maximum of 75 passages.
(§2) FLIPR assay allowed for indirect measurement of intracellular Ca^2+ concentration by means of a Ca^2+-sensitive fluorescent dye (Fluo-4) using the FLIPR instrument (Molecular Devices, San Jose, CA, USA). For these assays, 40 mM stock solutions of the test items were prepared in 100% dimethyl sulfoxide (DMSO), while glutamate and glycine 4 mM stock solutions were prepared in water. 384-well compound plates containing 400 × concentrated test item, glutamate, and glycine were prepared using Labcyte Echo acoustic dispensing system and stored at −20 °C until the day of the experiment.
(§3) Glycine 10 μM was always included in every test item addition.
(§4) Glycine was kept at a constant concentration of 10 μM during experiments.

NR1-2D NMDAR [2] = biological target: T2, NR1-2D NMDAR (Homo sapiens, UniProt O15399+Q05586); test: as above; format: cell-based; set-up: host or cells: CHO (CHO-hN1-h2D), tetracycline-induced expression; conditions: for Min. (%), minimal % Ca2+ influx in the presence of 100 μM blocker: 10 µM L-glutamate, no Mg2+; for Slope: logistic fit of blocker CRC
From the text: as §1, §2, §3, §4

NR1-2A NMDAR [3] = biological target: T3, NR1-2A NMDAR (Homo sapiens, UniProt Q05586+Q12879); test: as above; format: cell-based; set-up: host or cells: CHO (CHO-hNR1-h2A), tetracycline-induced expression; conditions: for Slope: logistic fit of blocker CRC
T3 sequence (Q12879 23-1464, other chains not shown): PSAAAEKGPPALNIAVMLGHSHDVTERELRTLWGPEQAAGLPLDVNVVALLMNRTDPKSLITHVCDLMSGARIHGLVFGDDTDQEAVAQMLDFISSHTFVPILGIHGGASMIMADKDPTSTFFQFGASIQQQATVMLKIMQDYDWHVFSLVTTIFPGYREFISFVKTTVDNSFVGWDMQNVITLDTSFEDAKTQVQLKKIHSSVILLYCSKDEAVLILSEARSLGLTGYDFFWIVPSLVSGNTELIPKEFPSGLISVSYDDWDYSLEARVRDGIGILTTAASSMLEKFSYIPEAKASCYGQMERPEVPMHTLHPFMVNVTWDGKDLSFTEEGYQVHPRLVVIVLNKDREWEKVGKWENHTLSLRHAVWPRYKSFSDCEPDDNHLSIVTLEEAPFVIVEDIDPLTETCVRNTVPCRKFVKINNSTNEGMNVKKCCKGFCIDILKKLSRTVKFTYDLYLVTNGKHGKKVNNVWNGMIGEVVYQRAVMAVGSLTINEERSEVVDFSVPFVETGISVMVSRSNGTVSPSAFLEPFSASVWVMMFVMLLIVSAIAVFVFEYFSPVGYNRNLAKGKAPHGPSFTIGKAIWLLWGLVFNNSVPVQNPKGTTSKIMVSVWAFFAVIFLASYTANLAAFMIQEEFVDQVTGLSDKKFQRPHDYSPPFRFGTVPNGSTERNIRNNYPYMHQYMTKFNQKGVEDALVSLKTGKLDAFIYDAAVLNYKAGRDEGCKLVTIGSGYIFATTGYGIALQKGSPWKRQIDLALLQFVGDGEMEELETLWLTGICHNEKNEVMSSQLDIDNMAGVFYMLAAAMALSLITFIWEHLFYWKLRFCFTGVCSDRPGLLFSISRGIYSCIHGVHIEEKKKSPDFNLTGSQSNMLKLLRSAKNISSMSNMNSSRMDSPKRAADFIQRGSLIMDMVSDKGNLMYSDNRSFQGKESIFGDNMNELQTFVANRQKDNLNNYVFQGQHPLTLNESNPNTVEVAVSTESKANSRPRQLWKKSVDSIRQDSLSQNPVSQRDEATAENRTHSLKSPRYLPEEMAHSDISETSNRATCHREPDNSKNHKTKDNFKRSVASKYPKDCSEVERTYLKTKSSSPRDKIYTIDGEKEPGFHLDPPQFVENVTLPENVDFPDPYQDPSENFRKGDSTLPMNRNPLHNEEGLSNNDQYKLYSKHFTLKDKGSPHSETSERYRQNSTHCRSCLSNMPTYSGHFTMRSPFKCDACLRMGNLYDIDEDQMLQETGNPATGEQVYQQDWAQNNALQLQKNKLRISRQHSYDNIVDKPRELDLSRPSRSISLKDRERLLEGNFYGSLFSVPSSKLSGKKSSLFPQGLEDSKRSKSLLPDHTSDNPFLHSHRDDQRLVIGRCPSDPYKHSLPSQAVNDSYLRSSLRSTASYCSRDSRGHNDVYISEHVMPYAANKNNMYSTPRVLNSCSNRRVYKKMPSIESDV
From the text: as §1, §2, §3, §4

NR1-2C NMDAR [4] = biological target: T4, NR1-2C NMDAR (Homo sapiens, UniProt Q05586+Q14957); test: as above; format: cell-based; set-up: host or cells: CHO (CHO-hN1-h2C), tetracycline-induced expression; conditions: for Min. (%), minimal % Ca2+ influx in the presence of 100 μM blocker: 10 µM L-glutamate, no Mg2+; for Slope: logistic fit of blocker CRC
T4 sequence (Q14957 20-1233, other chains not shown): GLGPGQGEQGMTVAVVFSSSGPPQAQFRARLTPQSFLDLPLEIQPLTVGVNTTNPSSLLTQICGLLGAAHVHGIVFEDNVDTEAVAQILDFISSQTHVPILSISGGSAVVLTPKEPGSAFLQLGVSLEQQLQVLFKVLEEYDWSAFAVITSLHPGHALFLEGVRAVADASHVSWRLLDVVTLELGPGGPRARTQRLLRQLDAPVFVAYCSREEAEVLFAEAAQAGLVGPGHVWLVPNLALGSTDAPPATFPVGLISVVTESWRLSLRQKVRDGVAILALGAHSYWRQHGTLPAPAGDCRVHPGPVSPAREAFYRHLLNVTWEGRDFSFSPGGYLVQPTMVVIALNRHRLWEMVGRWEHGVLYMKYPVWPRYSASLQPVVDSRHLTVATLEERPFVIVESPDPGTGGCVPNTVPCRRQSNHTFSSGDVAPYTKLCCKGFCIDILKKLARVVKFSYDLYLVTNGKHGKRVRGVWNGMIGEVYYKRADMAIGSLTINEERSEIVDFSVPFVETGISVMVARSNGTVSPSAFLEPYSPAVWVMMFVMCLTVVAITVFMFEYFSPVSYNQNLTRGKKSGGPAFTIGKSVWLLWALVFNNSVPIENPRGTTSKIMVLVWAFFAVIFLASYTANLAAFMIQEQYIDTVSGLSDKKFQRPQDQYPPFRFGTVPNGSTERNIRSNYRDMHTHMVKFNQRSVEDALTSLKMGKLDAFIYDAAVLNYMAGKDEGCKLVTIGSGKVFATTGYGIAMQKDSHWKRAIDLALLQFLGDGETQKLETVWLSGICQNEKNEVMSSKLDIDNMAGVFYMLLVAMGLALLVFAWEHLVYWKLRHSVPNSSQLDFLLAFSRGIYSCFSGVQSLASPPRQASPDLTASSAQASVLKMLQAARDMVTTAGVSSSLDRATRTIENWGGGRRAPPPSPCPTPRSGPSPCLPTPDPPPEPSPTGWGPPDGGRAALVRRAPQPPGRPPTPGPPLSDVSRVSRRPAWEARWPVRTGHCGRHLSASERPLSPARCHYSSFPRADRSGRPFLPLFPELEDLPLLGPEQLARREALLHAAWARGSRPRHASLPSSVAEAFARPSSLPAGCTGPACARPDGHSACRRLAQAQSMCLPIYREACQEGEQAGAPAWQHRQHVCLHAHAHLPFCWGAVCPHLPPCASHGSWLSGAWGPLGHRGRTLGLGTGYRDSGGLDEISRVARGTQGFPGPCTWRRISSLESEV
From the text: as §1, §2, §3, §4

NR1-2A NMDAR [5] = biological target: T3, NR1-2A NMDAR; test: cell-based; format: cell-based; set-up: host or cells: CHO (CHO-hNR1-h2A), tetracycline-induced expression; conditions: for remaining activity at 0.049 µM / remaining activity at 0.195 µM / remaining activity at 0.781 µM / remaining activity at 3.1 µM / remaining activity at 12.5 µM / remaining activity at 50 µM: read-out: L-glutamate Max. (maximal asymptote) in the presence of test item, GluN1/GluN2A; for remaining activity at 0.049 µM: test item 0.049 μM; for remaining activity at 0.195 µM: test item 0.195 μM; for remaining activity at 0.781 µM: test item 0.781 μM; for remaining activity at 3.1 µM: test item 3.1 μM; for remaining activity at 12.5 µM: test item 12.5 μM; for remaining activity at 50 µM: test item 50 μM
NR1-2B NMDAR [6] = biological target: T1, NR1-2B NMDAR; test: cell-based; format: cell-based; set-up: host or cells: CHO (CHO-hNR1-h2B), constitutive expression; conditions: for remaining activity at 0.049 µM / remaining activity at 0.195 µM / remaining activity at 0.781 µM / remaining activity at 3.1 µM / remaining activity at 12.5 µM / remaining activity at 50 µM: read-out: L-glutamate Max. (maximal asymptote) in the presence of test item, GluN1/GluN2B; for remaining activity at 0.049 µM: test item 0.049 μM; for remaining activity at 0.195 µM: test item 0.195 μM; for remaining activity at 0.781 µM: test item 0.781 μM; for remaining activity at 3.1 µM: test item 3.1 μM; for remaining activity at 12.5 µM: test item 12.5 μM; for remaining activity at 50 µM: test item 50 μM
NR1-2C NMDAR [7] = biological target: T4, NR1-2C NMDAR; test: cell-based; format: cell-based; set-up: host or cells: CHO (CHO-hN1-h2C), tetracycline-induced expression; conditions: for remaining activity at 0.049 µM / remaining activity at 0.195 µM / remaining activity at 0.781 µM / remaining activity at 3.1 µM / remaining activity at 12.5 µM / remaining activity at 50 µM: read-out: L-glutamate Max. (maximal asymptote) in the presence of test item, GluN1/GluN2C; for remaining activity at 0.049 µM: test item 0.049 μM; for remaining activity at 0.195 µM: test item 0.195 μM; for remaining activity at 0.781 µM: test item 0.781 μM; for remaining activity at 3.1 µM: test item 3.1 μM; for remaining activity at 12.5 µM: test item 12.5 μM; for remaining activity at 50 µM: test item 50 μM
NR1-2D NMDAR [8] = biological target: T2, NR1-2D NMDAR; test: cell-based; format: cell-based; set-up: host or cells: CHO (CHO-hN1-h2D), tetracycline-induced expression; conditions: for remaining activity at 0.049 µM / remaining activity at 0.195 µM / remaining activity at 0.781 µM / remaining activity at 3.1 µM / remaining activity at 12.5 µM / remaining activity at 50 µM: read-out: L-glutamate Max. (maximal asymptote) in the presence of test item, GluN1/GluN2D; for remaining activity at 0.049 µM: test item 0.049 μM; for remaining activity at 0.195 µM: test item 0.195 μM; for remaining activity at 0.781 µM: test item 0.781 μM; for remaining activity at 3.1 µM: test item 3.1 μM; for remaining activity at 12.5 µM: test item 12.5 μM; for remaining activity at 50 µM: test item 50 μM
NR1-2C NMDAR [9] = biological target: T4, NR1-2C NMDAR; test: Whole-cell manual patch-clamp: current block, onset/offset kinetics and trapping, no Mg2+; conditions: test item 10 µM, −70 mV

| Compound | Min. (%), minimal % Ca2+ influx in the presence of 100 μM blocker (NR1-2B NMDAR [1]) | Slope (NR1-2B NMDAR [1]) | Min. (%), minimal % Ca2+ influx in the presence of 100 μM blocker (NR1-2D NMDAR [2]) | Slope (NR1-2D NMDAR [2]) | Slope (NR1-2A NMDAR [3]) | Min. (%), minimal % Ca2+ influx in the presence of 100 μM blocker (NR1-2C NMDAR [4]) | Slope (NR1-2C NMDAR [4]) | remaining activity at 0.049 µM (NR1-2A NMDAR [5]) | remaining activity at 0.195 µM (NR1-2A NMDAR [5]) | remaining activity at 0.781 µM (NR1-2A NMDAR [5]) | remaining activity at 3.1 µM (NR1-2A NMDAR [5]) | remaining activity at 12.5 µM (NR1-2A NMDAR [5]) | remaining activity at 50 µM (NR1-2A NMDAR [5]) | remaining activity at 0.049 µM (NR1-2B NMDAR [6]) | remaining activity at 0.195 µM (NR1-2B NMDAR [6]) | remaining activity at 0.781 µM (NR1-2B NMDAR [6]) | remaining activity at 3.1 µM (NR1-2B NMDAR [6]) | remaining activity at 12.5 µM (NR1-2B NMDAR [6]) | remaining activity at 50 µM (NR1-2B NMDAR [6]) | remaining activity at 0.049 µM (NR1-2C NMDAR [7]) | also measured |
| --- | --- | --- | --- | --- | --- | --- | --- | --- | --- | --- | --- | --- | --- | --- | --- | --- | --- | --- | --- | --- | --- |
| COc1ccc2c(c1)[C@]13CCCC[C@@H]1[C@H](C2)N(C)CC3 [Dextromethorphan, dextromethorphan] | 14% | −0.89 | 43% | −1.2 | −0.80 | 14% | −1.0 | 98% | 92% | 99% | 88% | 79% | 44% | 95% | 92% | 88% | 74% | 57% | 32% | 95% | Min. (%), minimal % Ca2+ influx in the presence of 100 μM blocker (NR1-2A NMDAR [3]; 100 μM blocker, 10 µM L-glutamate, no Mg2+): 35%; Kb (NR1-2A NMDAR [5]; NR1-2A, operational equation for allosteric modulators, no Mg2+): 9.6 µM; Affinity Ratio (%) (NR1-2A NMDAR [5]; NR1-2A, reciprocal of KB, highest affinity subtype = 100%): 13%; Kb (NR1-2B NMDAR [6]; NR1-2B, operational equation for allosteric modulators, no Mg2+): 1.9 µM; Affinity Ratio (%) (NR1-2B NMDAR [6]; NR1-2B, reciprocal of KB, highest affinity subtype = 100%): 63%; Kb (NR1-2C NMDAR [7]; NR1-2C, operational equation for allosteric modulators, no Mg2+): 1.2 µM; Affinity Ratio (%) (NR1-2C NMDAR [7]; NR1-2C, reciprocal of KB, highest affinity subtype = 100%): 100%; remaining activity at 0.195 µM (NR1-2C NMDAR [7]): 97%; remaining activity at 0.781 µM (NR1-2C NMDAR [7]): 86%; remaining activity at 3.1 µM (NR1-2C NMDAR [7]): 67%; remaining activity at 12.5 µM (NR1-2C NMDAR [7]): 26%; remaining activity at 50 µM (NR1-2C NMDAR [7]): 13%; Kb (NR1-2D NMDAR [8]; NR1-2D, operational equation for allosteric modulators, no Mg2+): 6.7 µM; Affinity Ratio (%) (NR1-2D NMDAR [8]; NR1-2D, reciprocal of KB, highest affinity subtype = 100%): 18%; remaining activity at 0.049 µM (NR1-2D NMDAR [8]): 93%; remaining activity at 0.195 µM (NR1-2D NMDAR [8]): 91%; remaining activity at 0.781 µM (NR1-2D NMDAR [8]): 99%; remaining activity at 3.1 µM (NR1-2D NMDAR [8]): 87%; remaining activity at 12.5 µM (NR1-2D NMDAR [8]): 59%; remaining activity at 50 µM (NR1-2D NMDAR [8]): 31% |
| CCC(=O)C(C[C@H](C)N(C)C)(c1ccccc1)c1ccccc1 [REL-1017, dextromethadone HCl] | 14% | −1.1 | 47% | −0.68 | −1.0 | 15% | −0.84 | 103% | 98% | 103% | 98% | 84% | 35% | 96% | 96% | 93% | 89% | 72% | 35% | 99% | I1 (% Current) at end of test item addition, normalized to I0 (NR1-2C NMDAR [9]; 30 s co-application): 20.4%; I2 (% Current) at end of test item removal, normalized to I0 (NR1-2C NMDAR [9]; 50 s after removal): 98.5%; BR (residual block) (NR1-2C NMDAR [9]; after wash with glycine alone): 71.8 ± 1.1; B (initial block) (NR1-2C NMDAR [9]): 84 ± 1% and 83.8 ± 1.2 %; BT (trapped block, BR/B × 100) (NR1-2C NMDAR [9]): 85.9 ± 1.9%; Tau off (NR1-2C NMDAR [9]): 17.7 ± 1.0 s; Tau on (NR1-2C NMDAR [9]): 4.7 ± 0.21 s; remaining activity at 0.195 µM (NR1-2C NMDAR [7]): 100%; remaining activity at 0.781 µM (NR1-2C NMDAR [7]): 95%; remaining activity at 3.1 µM (NR1-2C NMDAR [7]): 94%; remaining activity at 12.5 µM (NR1-2C NMDAR [7]): 75%; remaining activity at 50 µM (NR1-2C NMDAR [7]): 30%; remaining activity at 0.049 µM (NR1-2D NMDAR [8]): 101%; remaining activity at 0.195 µM (NR1-2D NMDAR [8]): 97%; remaining activity at 0.781 µM (NR1-2D NMDAR [8]): 101%; remaining activity at 3.1 µM (NR1-2D NMDAR [8]): 97%; remaining activity at 12.5 µM (NR1-2D NMDAR [8]): 82%; remaining activity at 50 µM (NR1-2D NMDAR [8]): 41% |
